Measured values taken from patent US10226452B2, “Benzoxazolone derivatives as acid ceramidase inhibitors, and their use as medicaments” (FONDAZIONE ISTITUTO ITALIANO DI TECNOLOGIA, priority 2014, dated 2019).

What was measured:
[1] = biological target: human (hAC) acid ceramidase (Homo sapiens (Human), UniProt Q13510); experiment: fluorescent-based in vitro assay on human acid ceramidase; format: biochemical; conditions: hAC-enriched lysosomal lysate from HEK293 cells; fluorogenic probe 5 μM; pH 4.5
Description: To evaluate the potency of the compounds towards acid ceramidase, a fluorescence-based in vitro assay previously described in literature (Bedia C et al., ChemBioChem, 2007, 8, 642-648) was implemented and optimized. This assay is based on a “fluorogenic probe” containing a coumarin group and a sphingoid base moiety (see figure below), which is not fluorescent in itself, but upon enzymatic cleavage by acid ceramidase followed by a chemical transformation liberates the fluorescent molecule umbelliferone (7-hydroxychromen-2-one). By quantifying the generation of umbelliferone using a fluorescence plate-reader, the level of enzymatic activity can be measured, whereby IC50 values of compounds that inhibit this activity can be generated.
Lysosomal lysate, enriched with acid ceramidase, was prepared from a cell line stably expressing human acid ceramidase. In the assay, the fluorogenic probe (or substrate) serves as a ceramide-analogue, which is recognized and hydrolyzed at the amide bond by acid ceramidase from the enriched lysate to yield the fatty acid and coumarinic aminodiol. By treating the solution with sodium periodate (NaIO4), the coumarinic aminodiol is subsequently oxidized into an aldehyde intermediate, which undergoes a β-elimination reaction to release the strongly fluorescent umbelliferone.
A lysosomal human acid ceramidase protein preparation was obtained from HEK293 cells stably expressing acid ceramidase suspended in 20 mM Tris HCl (pH 7.5) with 0.32 M sucrose. The cell solution was sonicated and centrifuged at 800×g for 15 min at 4° C. Supernatants were then centrifuged at 12,000×g for 30 min at 4° C. Pellets were re-suspended in PBS pH 7.4 and subjected to two freeze-thaw cycles at −80° C. The suspension was finally centrifuged at 105,000×g for 1 hour at 4° C. and protein concentration was measured in the supernatant with bicinchinonic-acid based protein assay. This human acid ceramidase-enriched preparation allowed us to further optimize the enzymatic assay and to use smaller amounts of lysate (2 μg/well) and substrate (5 μM).
The assay was performed in Optiplate 96-wells black plates, with each reaction well containing a mixture of 25 mM sodium acetate buffer pH 4.5 and a fixed amount of protein (2 μg) in a volume of 85 μL. After 30 mins of pre-incubation with test compounds (diluted 20× from DMSO stock solutions at different concentrations), the fluorogenic probe was added (diluted 20× from EtOH stock solution, final concentration 5 μM). After incubation for 3 hours at 37° C., the reactions were stopped with 50 μL of methanol and 100 μL of a 2.5 mg/mL NalO4 fresh solution in 100 mM Glycine/NaOH pH 10.6. The plate was incubated at 37° C. for 2 hours in the dark and fluorescence intensities were measured at excitation/emission wavelengths of 360/446 nm. Negative control samples consisted of the same incubation mixture in the absence of protein extracts. The IC50 values or percent of inhibition, at the indicated concentration, of selected compounds described in the invention are reported in Table 2.

SW403 cells = experiment: sphingosine and ceramide levels in SW403 cells; format: cell-based, human; conditions: 0.1-20 μM, 3 hours
Method: (A) Intact cells were treated with compound of Example 25 (0.1-20 μM) or vehicle and AC activity was measured 3 hours later in cell lysates. (B-E) Intact cells were exposed to compound of Example 25 (0.1-20 μM) for 3 hours and sphingosine/sphinganine (B), dihydroceramides (C), medium chain ceramides (D), long chain ceramides (E) were quantified. Results are expressed as mean±s.e.m. (n=3). *p<0.05, **p<0.01, ***p<0.001 vs vehicle, two-way ANOVA followed by Dunnet.
(A) Intact cells were treated with compound of Example 25 (20 μM) or vehicle and AC activity was measured 1 to 48 hours later in cell lysates. (B-E) Intact cells were exposed to compound of Example 25 (20 μM) and sphingosine (B), C16:0 dihydroceramide (C), C16:0 ceramide (D) were quantified. Results are expressed as mean±s.e.m. […]
Lipids were extracted from mouse tissue lysate with a chloroform/MeOH mixture (2:1 v/v, 3 mL) containing internal standards. […] Ceramides, sphingosine and sphinganine were analyzed by LC-MS/MS, using a Waters Acquity UPLC coupled with a Waters Xevo TQMS and interfaced with ESI. […]
Tissue-derived sphingosine and sphinganine were identified by comparison of their LC retention times and MS^2 fragmentation patterns with those of authentic standards (Avanti Polar Lipids). Extracted ion chromatograms were used to quantify sphingosine ([…], m/z 300.5>282.5) and sphinganine standard (C18:0, m/z 303>285). […]

COX1 (h) = COX1 (h) (Homo sapiens (Human), UniProt P23219); experiment: Cerep enzyme inhibition screen: COX1; format: biochemical; conditions: mean of two determinations, read-out: Inhibitory activity (% Inh. at 10 μM), mean
Description: Compound of Example 25 falling in both Formula (I) and (Ia) was selected to be tested for off-target effects on a set of enzymes that include proteases (aspartic, cysteine, and serine), cyclooxygenases as well as lipoxygenases and group IV phospholipase (sPLA2) (Table 3). [table]

Chain of human (hAC) acid ceramidase (Q13510 22-142): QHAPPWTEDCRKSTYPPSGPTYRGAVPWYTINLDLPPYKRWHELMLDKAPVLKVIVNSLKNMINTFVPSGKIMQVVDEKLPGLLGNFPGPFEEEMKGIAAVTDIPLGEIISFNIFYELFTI
Chain of human (hAC) acid ceramidase (Q13510 143-395): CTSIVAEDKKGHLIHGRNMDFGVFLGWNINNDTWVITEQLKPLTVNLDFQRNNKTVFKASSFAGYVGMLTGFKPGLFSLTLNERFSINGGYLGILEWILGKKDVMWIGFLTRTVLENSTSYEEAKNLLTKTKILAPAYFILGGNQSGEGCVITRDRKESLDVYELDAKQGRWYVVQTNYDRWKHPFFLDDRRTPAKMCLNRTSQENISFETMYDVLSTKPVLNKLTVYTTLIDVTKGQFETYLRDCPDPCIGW
Chain of COX1 (h) (P23219 24-599): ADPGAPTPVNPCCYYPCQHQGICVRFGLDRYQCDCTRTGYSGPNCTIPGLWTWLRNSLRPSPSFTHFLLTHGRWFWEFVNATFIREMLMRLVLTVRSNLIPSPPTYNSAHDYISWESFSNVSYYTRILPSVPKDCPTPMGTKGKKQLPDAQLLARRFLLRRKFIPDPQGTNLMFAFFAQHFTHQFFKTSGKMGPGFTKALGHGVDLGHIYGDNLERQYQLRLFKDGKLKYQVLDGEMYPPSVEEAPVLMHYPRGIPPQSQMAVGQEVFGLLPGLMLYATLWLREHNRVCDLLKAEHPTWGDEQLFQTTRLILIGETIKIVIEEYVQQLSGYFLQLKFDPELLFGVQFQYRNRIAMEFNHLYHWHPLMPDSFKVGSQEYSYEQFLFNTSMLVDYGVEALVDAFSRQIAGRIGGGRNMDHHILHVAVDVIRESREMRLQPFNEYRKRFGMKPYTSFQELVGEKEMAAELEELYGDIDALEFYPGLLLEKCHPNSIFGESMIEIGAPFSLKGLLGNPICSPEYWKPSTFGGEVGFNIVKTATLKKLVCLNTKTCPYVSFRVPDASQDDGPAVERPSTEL

Row | Compound | IC50 [1] | di-hydro ceramides and ceramide species levels (SW403 cells) | sphingosine levels (SW403 cells) | inhibition at 10 µM (COX1 (h))
1 | O=C(NCCCCc1ccccc1)n1c(=O)oc2cc(Br)ccc21 [Example 7, 6-Bromo-2-oxo-N-(4-phenylbutyl)-1,3-benzoxazole-3-carboxamide] | 33 ± 9 nM | – | – | –
2 | O=C(NCCCCc1ccccc1)n1c(=O)oc2cc(-c3ccc(F)cc3)ccc21 [Example 25, 6-(4-Fluorophenyl)-2-oxo-N-(4-phenylbutyl)-1,3-benzoxazole-3-carboxamide] | – | intracellular accumulation of various di-hydro ceramides and ceramide species | parallel decrease in sphingosine levels | -6.1%
